Test results published in patent publication US7754772B2, “Nitrosated nonsteroidal antiinflammatory compounds, compositions and methods of use” (NicOx, S.A., priority 2002, dated 2010).
Read-outs that look alike come from different tables or passages of the source.

Columns and labels:
[1] = tested on: Male Sprague Dawley rats, gastric hemorrhagic lesion; settings: rat, in vivo, po
Protocol: (§1) Male Sprague Dawley rats (Charles River Laboratories, Wilmington, Mass.) weighing 230-250 g were used for the experiments. The rats were housed with laboratory chow and water ad libitum prior to the study. The rats were fasted for 24 hours with free access to water and then dosed by oral gavage with vehicle or with test compounds given at a volume of 0.5 mL/100 g. […] Rats were euthanized by CO2 three hours after dosing. The stomachs were dissected along the greater curvature, washed with a directed stream of 0.9% saline and pinned open on a sylgard based petri dish for examination of the hemorrhagic lesion. Gastric lesion score was expressed in mm and calculated by summing the length of each lesion.

[2] = tested on: Male Sprague-Dawley rats, carrageenan paw edema; assay: rat paw edema test (carrageenan), antiinflammatory activity; type: in vivo
Protocol: The rat paw edema test was used to measure the antiinflammatory activity. The rat paw edema test was performed according to the method of Winter et al, Proc. Soc. […] Male Sprague-Dawley rats (250-275 g) were fasted overnight and dosed by oral gavage with vehicle or suspensions of compound one hour prior to the subplantar injection of 50 μl of 1% suspension of carrageenan. Three hours later, the paw volume was measured and compared with the initial volume measured immediately after carrageenan injection.

[3] = tested on: Male Sprague Dawley rats, gastric hemorrhagic lesion; assay: rat gastric lesion test; settings: rat fasted 24 hours, oral gavage, lesion score (summed length, mm) three hours after dosing; ratio relative to parent NSAID (Naproxen = 1)
Protocol: as §1

[4] = oral gavage one hour prior to subplantar carrageenan, paw volume three hours later, expressed as ratio (Vehicle = 1)

melting point | Relative Activity Gastric Lesion [3] | SMILES | also measured
128 to 129 °C |  | COc1ccc2c(c1)c(CC(=O)OCC(=O)NCCO[N+](=O)[O-])c(C)n2C(=O)c1ccc(Cl)cc1 [Example 56, (N-(2-(Nitrooxy)ethyl)carbamoyl)methyl 2-(1-((4-chlorophenyl)carbonyl)-5-methoxy-2-methylindol-3-yl)acetate] | 
 |  | COc1ccc2cc([C@H](C)C(=O)Oc3cccc(C(=O)OCCO[N+](=O)[O-])c3)ccc2c1 [Example 36] | Relative Activity Gastric Lesion [1]: 0.57; Relative Activity Antiinflammation ([2]; in vivo, po): 0.65
108 to 115 °C |  | COc1ccc2cc([C@H](C)C(=O)OCCN(C)C(=O)c3ccc(CO[N+](=O)[O-])cc3)ccc2c1 [Example 45, 2-(N-Methyl(4-((nitrooxy)methyl)phenyl)carbonylamino)ethyl (2S)-2-(6-methoxy(2-naphthyl))propanoate] | 
159 to 160 °C |  | COc1ccc2c(c1)c(CC(=O)O[C@H]1CO[C@H]3[C@H]1OC[C@H]3O[N+](=O)[O-])c(C)n2C(=O)c1ccc(Cl)cc1 [Example 46, (1S,2S,5S,6R)-6-(Nitrooxy)-4,8-dioxabicyclo(3.3.0)oct-2-yl 2-(1-((4 chlorophenyl)carbonyl)-5-methoxy-2-methylindol-3-yl)acetate] | 
 | 0.02 | COc1ccc2cc([C@H](C)C(=O)OCC3(CO[N+](=O)[O-])COCOC3)ccc2c1 [Example 9] | Relative Activity Antiinflammation [2, 4]: 0.69
 |  | COc1ccc2cc([C@H](C)C(=O)OC[C@@H](O)CO[N+](=O)[O-])ccc2c1 [Example 28, (2R)-2-hydroxy-3-(nitrooxy)propyl (2S)-2-(6-methoxy(2-naphthyl)) propanoate] | Relative Activity Antiinflammation [2, 4]: 0.57
105 to 107 °C |  | COc1ccc2cc([C@H](C)C(=O)OCC(=O)COC(=O)c3ccc(CO[N+](=O)[O-])cc3)ccc2c1 [Example 11, 3-(4-((Nitrooxy)methyl)phenylcarbonyloxy)-2-oxopropyl (2S)-2-(6-methoxy(2-naphthyl))propanoate] | 
104 to 105 °C | 0.02 | COc1ccc2cc([C@H](C)C(=O)OCC(=O)N(C)CCCO[N+](=O)[O-])ccc2c1 [Example 34, (N-methyl-N-(3-(nitrooxy)propyl)carbamoyl)methyl (2S)-2-(6-methoxy(2-naphthyl))propanoate] | 
92 to 95 °C |  | COc1ccc2cc([C@H](C)C(=O)OCCN(CCO[N+](=O)[O-])S(=O)(=O)c3ccc(C)cc3)ccc2c1 [Example 48, 2-(((4-Methylphenyl)sulfonyl)(2-(nitrooxy)ethyl)amino)ethyl (2S)-2-(6-methoxy(2-naphthyl))propanoate] | 
79 to 81 °C |  | COc1ccc2cc([C@H](C)C(=O)OCC(=O)N(C)CC(=O)NCCO[N+](=O)[O-])ccc2c1 [Example 22, (N-Methyl-N-((N-(2-(nitrooxy)ethyl)carbamoyl)methyl)carbamoyl)methyl (2S)-2-(6-methoxy(2-naphthyl))propanoate] | 
30 to 35 °C |  | COc1ccc2cc([C@H](C)C(=O)SCCCCO[N+](=O)[O-])ccc2c1 [Example 54, (2S)-2-(6-methoxy(2-naphthyl))-1-(4-(nitrooxy)butylthio)propan-1-one] | 
117 to 119 °C |  | COc1ccc2cc([C@H](C)C(=O)NNC(=O)CCCO[N+](=O)[O-])ccc2c1 [Example 41, N-((2S)-2-(6-Methoxy(2-naphthyl))propanoylamino)-4 (nitrooxy)butanamide] | 
92 to 95 °C |  | COc1ccc2cc([C@H](C)C(=O)OCC(=O)COC(=O)Cc3ccc(CO[N+](=O)[O-])cc3)ccc2c1 [Example 30, 3-(2-(4-((Nitrooxy)methyl)phenyl)acetyloxy)-2-oxopropyl (2S)-2-(6-methoxy(2-naphthyl))propanoate] | 
71 to 73 °C | 0.03 | COc1ccc2cc([C@H](C)C(=O)OCC(=O)N(C)CC(=O)OCCO[N+](=O)[O-])ccc2c1 [Example 20, (N-Methyl-N-(((2-(nitrooxy)ethyl)oxycarbonyl)methyl)carbamoyl)methyl (2S)-2-(6-methoxy(2-naphthyl))propanoate] | 
41 to 43 °C | 0.19 | COc1ccc2cc([C@H](C)C(=O)OCC(=O)N(C)CC(=O)OCCCO[N+](=O)[O-])ccc2c1 [Example 21, (N-Methyl-N-(((3-(nitrooxy)propyl)oxycarbonyl)methyl)carbamoyl)methyl (2S)-2-(6-methoxy(2-naphthyl))propanoate] | 
 | 0.06 | COc1ccc2cc([C@H](C)C(=O)Oc3ccc(C(=O)OCCO[N+](=O)[O-])cc3)ccc2c1 [Example 32, 4-((2-(Nitrooxy)ethyl)oxycarbonyl)phenyl (2S)-2-(6-methoxy(2-naphthyl))propanoate] | 
51 to 53 °C |  | COc1ccc2cc(C(C)C(=O)OCC(=O)NCCCO[N+](=O)[O-])ccc2c1 (stereo not drawn) [Example 24, (N-(3-(Nitrooxy)propyl)carbamoyl)methyl 2-(6-methoxy-2-naphthyl)propanoate] | 
 |  | COc1ccc2cc([C@H](C)C(=O)NOCC(=O)N3CCC(CO[N+](=O)[O-])CC3)ccc2c1 [Example 35, (2S)-2-(6-Methoxy(2-naphthyl))-N-(2-(4-((nitrooxy)methyl)piperidyl)-2-oxoethoxy)propanamide] | Relative Activity Antiinflammation [2, 4]: 0.06
81 to 83 °C |  | O=C(COC(=O)Cc1ccccc1Nc1c(Cl)cccc1Cl)NCCO[N+](=O)[O-] [Example 57, (N-(2-(Nitrooxy)ethyl)carbamoyl)methyl 2-(2-((2,6-dichlorophenyl)amino)phenyl)acetate] | 
67 to 69 °C | 0.04 | COc1ccc2cc([C@H](C)C(=O)OCCOc3ccc(OCCO[N+](=O)[O-])cc3)ccc2c1 [Example 39, 2-(4-(2-(Nitrooxy)ethoxy)phenoxy)ethyl (2S)-2-(6-methoxy(2-naphthyl))propanoate] | 
 | 0.07 | COc1ccc2cc([C@H](C)C(=O)OCC(=O)O[C@@H]3CO[C@H]4[C@H]3OC[C@H]4O[N+](=O)[O-])ccc2c1 [Example 26, (1S,5S,2R,6R)-6-(Nitrooxy)-4,8-dioxabicyclo(3.3.0)oct-2-yl)oxycarbonyl) methyl (2S)-2-(6-methoxy (2-naphthyl)) propanoate] | Relative Activity Antiinflammation [2, 4]: 0.75
60 to 61 °C | 0.25 | CCN(CCO[N+](=O)[O-])C(=O)COC(=O)[C@@H](C)c1ccc2cc(OC)ccc2c1 [Example 18, (N-Ethyl-N-(2-(nitrooxy)ethyl)carbamoyl)methyl (2S)-2-(6-methoxy(2-naphthyl))propanoate] | 
 | 1 | COc1ccc2cc([C@H](C)C(=O)O)ccc2c1 [Naproxen, (2S)-2-(6-methoxy(2-naphthyl))propanoic acid, reference compound] | 
44 to 45 °C |  | COc1ccc2cc(C(C)C(=O)OCC(=O)OCCO[N+](=O)[O-])ccc2c1 (stereo not drawn) [Example 23, ((2-(Nitrooxy)ethyl)oxycarbonyl)methyl 2-(6-methoxy-2-naphthyl)propanoate] | 
 | 0.18 | COc1ccc2cc([C@H](C)C(=O)OCC(C)(CO[N+](=O)[O-])[N+](=O)[O-])ccc2c1 (stereo partly drawn) [Example 12, 2-Methyl-2-nitro-3-(nitrooxy)propyl(2S)-2-(6-methoxy(2-naphthyl)) propanoate] | Relative Activity Antiinflammation [2, 4]: 0.47
55 to 58 °C |  | COc1ccc2cc([C@H](C)C(=O)OCCOC(=O)C(=O)OCCCO[N+](=O)[O-])ccc2c1 [Example 40, 2-((2S)-2-(6-Methoxy(2-naphthyl))propanoyloxy)ethyl 3-(nitrooxy)-propyl ethane-1,2-dioate] | 
33 to 37 °C | 0.32 | COc1ccc2cc([C@H](C)C(=O)OCCSCCO[N+](=O)[O-])ccc2c1 [Example 1, 2-(2-(Nitrooxy)ethylthio)ethyl (2S)-2-(6-methoxy(2-naphthyl))propanoate] | 
80 to 81 °C |  | COc1ccc2cc([C@H](C)C(=O)OCC(=O)N(C)CCO[N+](=O)[O-])ccc2c1 [Example 17, (N-Methyl-N-(2-(nitrooxy)ethyl)carbamoyl)methyl (2S)-2-(6-methoxy(2-naphthyl))propanoate] | 
56 to 57 °C | 0.15 | COc1ccc2cc([C@H](C)C(=O)OCCOC(=O)NCCO[N+](=O)[O-])ccc2c1 [Example 14, 2-(N-(2-(Nitrooxy)ethyl)carbamoyloxy)ethyl (2S)-2-(6-methoxy(2-naphthyl))propanoate] | 
 | 0.11 | COc1ccc2cc([C@H](C)C(=O)OCCS(=O)(=O)CCO[N+](=O)[O-])ccc2c1 [Example 2, 2-((2-(Nitrooxy)ethyl)sulfonyl)ethyl (2S)-2-(6-methoxy(2-naphthyl)) propanoate] | Relative Activity Antiinflammation [2, 4]: 0.49

SMILES | melting point | Relative Activity Gastric Lesion [3] | also measured
COc1ccc2cc([C@H](C)C(=O)OCC(CO[N+](=O)[O-])(CO[N+](=O)[O-])[N+](=O)[O-])ccc2c1 [Example 13, 2-Nitro-3-(nitrooxy)-2-((nitrooxy)methyl)propyl (2S)-2-(6-methoxy(2-naphthyl))propanoate] | 69 to 71 °C | 0.55 | 
COc1ccc2cc([C@H](C)C(=O)OC[C@@H](CO[N+](=O)[O-])O[N+](=O)[O-])ccc2c1 [Example 27c, (2S)-2,3-Bis(nitrooxy)propyl (2S)-2-(6-methoxy(2-naphthyl))propanoate] |  | 0.20 | 
